According to ChEMBL document CHEMBL1201862, “PubChem BioAssay data set” (2004):
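1) Cells in 96-well plates. 2) Compound, 48 h, 5 concentrations. 3) Linear interpolation between surrounding doses. 4) Unreached endpoint = highest concentration. GI50 is the concentration that inhibits growth by half.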 Calls of active or inactive are those of the source. Rule as the data show it: active = GI50 up to about 1.1 µM and inactive = higher.

What was measured:
Assay in all cases: NCI tumour cell line growth inhibition, 48 h
DLD-1 = system: DLD-1
DMS-114 = system: DMS-114
DMS-273 = system: DMS-273
HOP-18 = system: HOP-18
KM-20L2 = system: KM-20L2
M19-MEL = system: M19-MEL
SNB-78 = system: SNB-78
XF498 = system: XF498
RXF 631 = system: RXF 631

Row | Structure (SMILES) | GI50 (DLD-1) | GI50 (DMS-114) | GI50 (DMS-273) | GI50 (HOP-18) | GI50 (KM-20L2) | GI50 (M19-MEL) | GI50 (SNB-78) | GI50 (XF498) | GI50 (RXF 631)
1 | CCCCCCCCCCCC[C@@H](O)[C@H]1CC[C@H]([C@H](O)CCCC[C@H](O)CCCCC[C@@H](O)CC2=C[C@H](C)OC2=O)O1 | 2.67 µM (inactive) | < 0.01 µM (active) | 1.57 µM (inactive) | 3.23 µM (inactive) | 2.19 µM (inactive) | 1.69 µM (inactive) | 3.95 µM (inactive) |  | 
2 | CN(C)CCCn1cnc2ncccc2c1=O | > 100 µM (inactive) | 48.5 µM (inactive) | > 100 µM (inactive) |  |  | > 100 µM (inactive) | > 100 µM (inactive) | > 100 µM (inactive) | 
3 | CCOC(=O)C(c1ccsc1)P(=O)(OCC)OCC (stereo not given) | 12.8 µM (inactive) | 13.8 µM (inactive) | 13.2 µM (inactive) | 28.3 µM (inactive) | 14.5 µM (inactive) | 11.2 µM (inactive) | 12.6 µM (inactive) | 20.9 µM (inactive) | 
4 | O=C(Cc1nc2ccccc2o1)C(=O)Nc1cccc(Cl)c1 | > 100 µM (inactive) | > 100 µM (inactive) |  | > 100 µM (inactive) | > 100 µM (inactive) | > 100 µM (inactive) | > 100 µM (inactive) | > 100 µM (inactive) | 
5 | O=C1CCC(=O)C12CCc1ccccc12 | > 100 µM (inactive) | > 100 µM (inactive) | > 100 µM (inactive) | > 100 µM (inactive) | > 100 µM (inactive) | > 100 µM (inactive) |  | > 100 µM (inactive) | > 100 µM (inactive)
6 | Nc1c2ccccc2nc2nccnc12 | > 100 µM (inactive) | > 100 µM (inactive) | > 100 µM (inactive) | > 100 µM (inactive) | > 100 µM (inactive) | > 100 µM (inactive) | > 100 µM (inactive) | > 100 µM (inactive) | 
7 | CC1(C)CC(=O)C(/C(=N/NC(=S)NN)C(=O)Nc2nc3ccc([N+](=O)[O-])cc3s2)C(=O)C1 | > 100 µM (inactive) | > 100 µM (inactive) |  | 76.7 µM (inactive) | > 100 µM (inactive) | > 100 µM (inactive) | > 100 µM (inactive) | > 100 µM (inactive) | 
8 | COC(=O)C1=Cc2cc3c(cc2[C@H](c2ccc4c(c2)OCO4)C1C(=O)OC)OCO3 (stereo not given in full) | 54.5 µM (inactive) | > 100 µM (inactive) | > 100 µM (inactive) | > 100 µM (inactive) | > 100 µM (inactive) | > 100 µM (inactive) | > 100 µM (inactive) | > 100 µM (inactive) | 
9 | Cc1c2ccccc2cc2ccc3oc([N+](=O)[O-])cc3c12 | > 100 µM (inactive) | > 100 µM (inactive) | > 100 µM (inactive) | 2 µM (inactive) | > 100 µM (inactive) | > 100 µM (inactive) | > 100 µM (inactive) | > 100 µM (inactive) | 
10 | COC(=O)/C(=N\NC(N)=O)C(C#N)c1ccccc1 (stereo not given) | > 100 µM (inactive) | > 100 µM (inactive) |  | > 100 µM (inactive) | > 100 µM (inactive) | > 100 µM (inactive) | > 100 µM (inactive) | 75.5 µM (inactive) | 
11 | Cc1ccc(C(=O)CC2(O)C(=O)Nc3c(C)cc(Cl)cc32)cc1 (stereo not given) | > 100 µM (inactive) | 52.1 µM (inactive) | > 100 µM (inactive) | > 100 µM (inactive) | > 100 µM (inactive) |  | > 100 µM (inactive) | > 100 µM (inactive) | > 100 µM (inactive)
12 | Cc1ccccc1NC(=O)c1cc(-c2ccc([N+](=O)[O-])cc2)nc(S)n1 | > 100 µM (inactive) | > 100 µM (inactive) | > 100 µM (inactive) | > 100 µM (inactive) | > 100 µM (inactive) |  | > 100 µM (inactive) |  | > 100 µM (inactive)
13 | CCOC(=O)C(Cc1c(C=O)[nH]c2ccccc12)(NC(=O)c1ccccc1)C(=O)OCC | 7.93 µM (inactive) | 19.8 µM (inactive) |  | > 10 µM (inactive) |  | 16 µM (inactive) |  | 16.4 µM (inactive) | 
14 | CC(C)=CCC/C(C)=C/Cc1c(O)c(C)cc2c1[nH]c1cc(O)ccc12 | > 25 µM (inactive) | > 25 µM (inactive) | > 25 µM (inactive) |  | > 25 µM (inactive) | > 25 µM (inactive) | > 25 µM (inactive) |  | 
15 | O=C(C/C(=N\NC(=O)C[n+]1ccccc1)C(=O)Nc1nc2ccc([N+](=O)[O-])cc2s1)CC(c1ccccc1)c1c(O)c2ccccc2oc1=O (stereo not given) | > 100 µM (inactive) | > 100 µM (inactive) |  |  | > 100 µM (inactive) | > 100 µM (inactive) |  |  | 
16 | CC(Oc1ccc(OCC2CCCCC2)cc1)C(N)=O (stereo not given) | > 100 µM (inactive) | 73.6 µM (inactive) | > 100 µM (inactive) | > 100 µM (inactive) |  | > 100 µM (inactive) | > 100 µM (inactive) | > 100 µM (inactive) | 
17 | COc1ccc(/C=C2\N=C(c3ccccc3)OC2=O)c(OCc2ccccc2)c1 | 17.7 µM (inactive) | 31.1 µM (inactive) | 32.3 µM (inactive) | > 100 µM (inactive) | > 100 µM (inactive) | 38.3 µM (inactive) |  |  | 
18 | c1ccc(CSc2nc3ccccc3nc2-c2cccs2)cc1 | > 100 µM (inactive) | > 100 µM (inactive) | > 100 µM (inactive) | > 100 µM (inactive) |  | > 100 µM (inactive) | > 100 µM (inactive) | > 100 µM (inactive) | 
19 | Brc1ccc2c(C3CN[C@@H](c4c[nH]c5cc(Br)ccc45)CN3)c[nH]c2c1 (stereo not given in full) | 3.03 µM (inactive) | 1.95 µM (inactive) | 2.26 µM (inactive) | 11.9 µM (inactive) | 1.98 µM (inactive) | 6.78 µM (inactive) | 10.4 µM (inactive) | 6.84 µM (inactive) | 2.67 µM (inactive)
20 | Cc1c[nH]c2c(O)cc3c(c12)[C@H](CCl)CN3C(=O)c1cc2cc(NC(=O)Nc3ccc4[nH]c(C(=O)N5C[C@@H](CCl)c6c5cc(O)c5[nH]cc(C)c65)cc4c3)ccc2[nH]1 [BIZELESIN] |  | < 0.001 µM (active) |  | < 0.001 µM (active) | < 0.001 µM (active) | < 0.001 µM (active) | < 0.001 µM (active) | < 0.001 µM (active) | < 0.001 µM (active)
